What was measured:
[1] = tested on: OK-CTLp or OK-CTL clone; assay: Recognition of peptide-pulsed T2 cells by OK-CTLp or OK-CTL clone (IFN-γ ELISA); format: cell-based, human
[2] = tested on: human peripheral blood mononuclear cells (PBMC); assay: CTL induction by peptide from PBMC of HLA-A2-positive cancer patients and healthy individuals, IFN-γ against peptide-pulsed T2 cells (Example 6); format: cell-based; conditions: for INF-γ production: peptide-pulsed T2 cells; for Healthy individuals in whom CTL were induced from PBMC: six healthy individuals; for Patients in whom peptide-specific HLA-A2-restricted CTL were induced from PBMC: sixteen HLA-A2-positive cancer patients
Protocol: For six peptides (P21, P22, P24, P26, P30, and P32) with a purity of 95% or higher among peptides from P20 to P32 derived from gene 7 and CPSF among the tumor antigen peptide obtained in Example 4, the activity to induce CTL in vitro from human peripheral blood mononuclear cells (PBMC) was examined using IFN-γ production as an indicator. PBMC used was prepared from each peripheral blood of sixteen HLA-A2-positive cancer patients (4 patients with pancreatic cancer, seven patients with stomach cancer, and 5 patients with colon cancer) and six healthy individuals. Specifically, 1×10^5 PBMC was added to each well of 96-well U-bottom type microculture plate (Nunc Corp.) and incubated together with 10 μM of each of the above-described peptides in 200 μl culture medium. The culture medium consisted of 45% RPMI-1640, 45% AIM-V (Invitrogen Corp.,) 10% fetal calf serum (FCS), 100U/ml of human interleukin-2, and […] MEM nonessential amino acid solution (Invitrogen Corp.). At day 4 and day 7 after the start of culturing, half of the culture medium was removed and replaced with the above-described composition containing each corresponding peptide. At day 10 after the start of culturing, the cells were collected and washed, followed by reacting with T2 cells, which were pulsed with each corresponding peptide, to measure the amount of IFN-γ produced.

[3] = tested on: Panc-1 pancreatic adenocarcinoma cell (HLA-A2); assay: 6-h 51Cr-releasing test of peptide-stimulated PBMC against Panc-1 (Example 6); format: cell-based, human
Protocol: Meanwhile, the above-described cells cultured for 10 days after stimulation by the peptide were further cultured for 10 days. The cytotoxicity of the obtained cells against the Panc-1 pancreatic adenocarcinoma cell (HLA-A2) was measured by the standard 6-h ^51Cr-releasing test in an E/T ratio of 10:1. The results obtained are presented as % specific lysis (table 7). Together with this step, cytotoxicity against SSTW-9 tumor cell as the HLA-A2^− tumor cell was measured to use as a background that was subtracted from the above-described result.

[4] = concentration of peptide 0.1 μM
[5] = PBMC of colon cancer patient 12
[6] = PBMC of colon cancer patient 13
[7] = PBMC of colon cancer patient 14
[8] = PBMC of colon cancer patient 15
[9] = PBMC of colon cancer patient 16
[10] = PBMC of pancreatic cancer patient 1
[11] = PBMC of pancreatic cancer patient 2
[12] = PBMC of pancreatic cancer patient 3
[13] = PBMC of pancreatic cancer patient 4
[14] = PBMC of stomach cancer patient 5
[15] = PBMC of stomach cancer patient 6
[16] = PBMC of stomach cancer patient 7
[17] = PBMC of stomach cancer patient 8
[18] = PBMC of stomach cancer patient 9
[19] = PBMC of stomach cancer patient 10
[20] = PBMC of stomach cancer patient 11
[21] = PBMC of colon cancer patient 12, Panc-1, E/T 10:1
[22] = PBMC of colon cancer patient 14, Panc-1, E/T 10:1
[23] = PBMC of pancreatic cancer patient 2, Panc-1, E/T 10:1, SSTW-9 background subtracted
[24] = PBMC of pancreatic cancer patient 4, Panc-1, E/T 10:1

| Sequence | INF-γ production [2, 5] | INF-γ production [2, 6] | INF-γ production [2, 7] | INF-γ production [2, 8] | INF-γ production [2, 9] | INF-γ production ([2]; PBMC of healthy individual HD1) | INF-γ production ([2]; PBMC of healthy individual HD2) | INF-γ production ([2]; PBMC of healthy individual HD3) | INF-γ production ([2]; PBMC of healthy individual HD4) | INF-γ production ([2]; PBMC of healthy individual HD5) | INF-γ production ([2]; PBMC of healthy individual HD6) | INF-γ production [2, 10] | INF-γ production [2, 11] | INF-γ production [2, 12] | INF-γ production [2, 13] | INF-γ production [2, 14] | INF-γ production [2, 15] | INF-γ production [2, 16] | INF-γ production [2, 17] | INF-γ production [2, 18] | other results |
| --- | --- | --- | --- | --- | --- | --- | --- | --- | --- | --- | --- | --- | --- | --- | --- | --- | --- | --- | --- | --- | --- |
| DMWTVIAPV (Designed peptide having an ability to activate HLA-A2 restricted Cytotoxic T lymphocytes) [Peptide P22, CPSF 534-542] | 92 pg/mL | 179 pg/mL | 80 pg/mL | 5 pg/mL | 0 pg/mL | 0 pg/mL | 0 pg/mL | 0 pg/mL | 0 pg/mL | 0 pg/mL | 14 pg/mL | 0 pg/mL | 38 pg/mL | 0 pg/mL | 8 pg/mL | 0 pg/mL | 0 pg/mL | 0 pg/mL | 0 pg/mL | 0 pg/mL | IFN-γ production [1, 4]: 254 pg/mL; IFN-γ production ([1]; concentration of peptide 1 μM): 1027 pg/mL; IFN-γ production ([1]; concentration of peptide 10 μM): 431 pg/mL; IFN-γ production ([1]; concentration of peptide 50 μM): 407 pg/mL; INF-γ production [2, 19]: 0 pg/mL; INF-γ production [2, 20]: 0 pg/mL; Healthy individuals in whom CTL were induced from PBMC [2]: 33%; Patients in whom peptide-specific HLA-A2-restricted CTL were induced from PBMC [2]: 38%; % specific lysis [3, 21]: 28%; % specific lysis [3, 22]: 19%; % specific lysis [3, 23]: 37% |
| KVHPVIWSL [Peptide P21] | 0 pg/mL | 0 pg/mL | 66 pg/mL | 0 pg/mL | 140 pg/mL | 0 pg/mL | 0 pg/mL | 58 pg/mL | 5 pg/mL | 224 pg/mL | 97 pg/mL | 0 pg/mL | 7 pg/mL | 0 pg/mL | 543 pg/mL | 0 pg/mL | 0 pg/mL | 0 pg/mL | 5 pg/mL | > 1500 pg/mL | IFN-γ production [1, 4]: 428 pg/mL; IFN-γ production ([1]; concentration of peptide 1 μM): 501 pg/mL; IFN-γ production ([1]; concentration of peptide 10 μM): 81 pg/mL; IFN-γ production ([1]; concentration of peptide 50 μM): 195 pg/mL; INF-γ production [2, 19]: 0 pg/mL; INF-γ production [2, 20]: 136 pg/mL; Healthy individuals in whom CTL were induced from PBMC [2]: 50%; Patients in whom peptide-specific HLA-A2-restricted CTL were induced from PBMC [2]: 31%; % specific lysis [3, 22]: 11%; % specific lysis [3, 24]: 12%; % specific lysis ([3]; PBMC of stomach cancer patient 9, Panc-1, E/T 10:1): 27%; % specific lysis ([3]; PBMC of stomach cancer patient 11, Panc-1, E/T 10:1): 18% |
| LLRRADFHV (Designed peptide having an ability to activate HLA-A2 restricted Cytotoxic T lymphocytes) [Peptide P26, Gene 7 1296-1304] | 0 pg/mL | 0 pg/mL | 0 pg/mL | 40 pg/mL | 45 pg/mL | 0 pg/mL | 0 pg/mL | 0 pg/mL | 0 pg/mL | 13 pg/mL | 0 pg/mL | 0 pg/mL | 35 pg/mL | 0 pg/mL | 77 pg/mL | 53 pg/mL | 0 pg/mL | 0 pg/mL | 11 pg/mL | 8 pg/mL | IFN-γ production [1, 4]: 141 pg/mL; IFN-γ production ([1]; concentration of peptide 1 μM): 418 pg/mL; IFN-γ production ([1]; concentration of peptide 10 μM): 1239 pg/mL; IFN-γ production ([1]; concentration of peptide 50 μM): 0 pg/mL; INF-γ production [2, 19]: 0 pg/mL; INF-γ production [2, 20]: 0 pg/mL; Patients in whom peptide-specific HLA-A2-restricted CTL were induced from PBMC [2]: 31%; % specific lysis ([3]; PBMC of colon cancer patient 15, Panc-1, E/T 10:1): 12%; % specific lysis [3, 23]: 36%; % specific lysis [3, 24]: 20%; % specific lysis ([3]; PBMC of stomach cancer patient 5, Panc-1, E/T 10:1): 11% |
| TQLATYSFEV (Designed peptide having an ability to activate HLA-A2 restricted Cytotoxic T lymphocytes) [Peptide P32, CPSF 456-465] | 57 pg/mL | 0 pg/mL | 0 pg/mL | 0 pg/mL | 4 pg/mL | 0 pg/mL | 0 pg/mL | 0 pg/mL | 0 pg/mL | 0 pg/mL | 0 pg/mL | 0 pg/mL | 12 pg/mL | 0 pg/mL | 0 pg/mL | 0 pg/mL | 0 pg/mL | 0 pg/mL | 0 pg/mL | 0 pg/mL | INF-γ production [2, 19]: 0 pg/mL; INF-γ production [2, 20]: 0 pg/mL; Patients in whom peptide-specific HLA-A2-restricted CTL were induced from PBMC [2]: 7%; % specific lysis [3, 21]: 18% |
